Laboratory results: patent US20250017912A1, “METHODS FOR DOWN-REGULATION AND UP-REGULATION OF PATHWAYS” (MedRegen, LLC, priority 2023, published 2025)
Read-outs that look alike come from different tables or passages of the source. Blank lines part the entries; values can stand above or below the compound they belong to.

How the values were obtained:
CD34+HSCs = settings: cited from earlier work
clinical = settings: human, in vivo
[1] = in vivo
[2] = test system: cell migration stimulated by CXCL12; settings: cited from earlier work
[3] = Tacrolimus whole blood pharmacokinetics (LC-MS-MS) after SC Composition A; type: in vivo, human; settings: for Tacrolimus blood trough levels: 0.01 ml/kg dose group; for AUC / Cmax / Tmax / half-life: human, whole blood; for AUC: read-out: Tacrolimus AUCtau (GM); for Cmax: read-out: Tacrolimus Cmax (GM)
Procedure: Tacrolimus. Blood samples were obtained from all subjects in parallel as for plerixafor. Whole blood from each sample was stored in −80° C. condition until shipment. The analysis of K2EDTA whole blood for the quantitation of tacrolimus using a validated method by LC-MS-MS was performed by Worldwide Clinical Trials, Bioanalytical Services (Austin, TX, USA) in compliance with principles of GLP standards as referenced above.
Study data were collected and similar pharmacokinetic parameters as above were calculated using Analyst® (Version 1.4.2 or 1.6.1, Applied Biosystems/MDS Sciex) and evaluated with Watson Laboratory Information Management System™ (LIMS; Version 7.2.0.03, Thermo Fisher Scientific) software.

[4] = sc, 0.005 mL/kg, Composition A 0.005 mL/kg SC QAD, Day 5
[5] = sc, 0.005 mL/kg, Composition A 0.005 mL/kg SC, Day 1
[6] = sc, 0.01 mL/kg, Composition A 0.01 mL/kg SC QAD, Day 5
[7] = sc, 0.01 mL/kg, Composition A 0.01 mL/kg SC, Day 1
[8] = sc, 0.02 mL/kg, Composition A 0.02 mL/kg SC QAD, Day 5
[9] = sc, 0.02 mL/kg, Composition A 0.02 mL/kg SC, Day 1

half-life (clinical; Plerixafor geometric mean t1/2): 3 to 6 h
half-life (clinical; sc, Plerixafor t1/2 (GM)): 3.29 h
Plerixafor median time to Cmax ([1]; human): 1 to 3 h
Plerixafor elimination ([1]; human, 48 h): fully eliminated at 48 hours
Plerixafor Cmax and AUC versus dose [1]: increased in a dose-proportional manner
Compound: c1cc(CN2CCCNCCNCCCNCC2)ccc1CN1CCCNCCNCCCNCC1 [Plerixafor, 1,1′-[1,4-phenylenebis(methylene)]bis-1,4,8,11-tetraazacyclo-tetradecane]
Peak CD34+ (CD34+HSCs; high dose plerixafor (0.48 mg/kg)): 32.2 c/μL
CD34+HSCs mobilized at peak levels (CD34+HSCs; normal dose of plerixafor (0.24 mg/kg)): 27.8 µL⁻¹
IC50 [2]: 51 ± 17 nM

Tacrolimus blood trough levels ([3]; day 1): less than 2 ng/ml
Tacrolimus blood trough levels ([3]; day 5): < 3 ng/mL
Tacrolimus Cmax and AUC versus dose ([3]; Composition A 0.005, 0.01, 0.02 mL/kg, Day 1 and QAD for 5 days): increased in a dose-proportional manner
Tacrolimus Ctrough (GM) ([3]; Composition A 0.005 mL/kg SC QAD, Day 5): 0.88 ng/mL
Tacrolimus Ctrough (GM) ([3]; Composition A 0.005 mL/kg SC, Day 1): 0.57 ng/mL
Tacrolimus median Ctrough ([3]; Composition A 0.005 mL/kg, Day 1): 0.58 ng/mL
Tacrolimus Ctrough ([3]; Composition A 0.005 mL/kg, Day 5): 0.90 ng/mL
Tacrolimus Ctrough (GM) ([3]; Composition A 0.01 mL/kg SC QAD, Day 5): 1.89 ng/mL
Tacrolimus Ctrough (GM) ([3]; Composition A 0.01 mL/kg SC, Day 1): 1.45 ng/mL
Tacrolimus median Ctrough ([3]; Composition A 0.01 mL/kg, Day 1): 1.48 ng/mL
Tacrolimus Ctrough ([3]; Composition A 0.01 mL/kg, Day 5): 1.99 ng/mL
Tacrolimus Ctrough (GM) ([3]; Composition A 0.02 mL/kg SC QAD, Day 5): 2.94 ng/mL
Tacrolimus Ctrough (GM) ([3]; Composition A 0.02 mL/kg SC, Day 1): 2.12 ng/mL
Tacrolimus median Ctrough ([3]; Composition A 0.02 mL/kg, Day 1): 2.24 ng/mL
Tacrolimus Ctrough ([3]; Composition A 0.02 mL/kg, Day 5): 3.19 ng/mL
AUC [3, 4]: 70.1 ng·h/mL
Cmax [3, 4]: 2.09 ng/mL
Tmax ([3]; sc, 0.005 mL/kg, Composition A 0.005 mL/kg SC QAD, Day 5, read-out: Tacrolimus Tmax (Median)): 10 h
half-life ([3]; sc, 0.005 mL/kg, Composition A 0.005 mL/kg SC QAD, Day 5, read-out: Tacrolimus t1/2 (GM) (converted)): 24.9 h
AUC [3, 5]: 46.4 ng·h/mL
Cmax [3, 5]: 1.47 ng/mL
Tmax ([3]; sc, 0.005 mL/kg, Composition A 0.005 mL/kg SC, Day 1, read-out: Tacrolimus Tmax (Median)): 7.5 h
half-life ([3]; sc, 0.005 mL/kg, Composition A 0.005 mL/kg SC, Day 1, read-out: Tacrolimus t1/2 (GM) (converted)): 23.8 h
AUC [3, 6]: 171 ng·h/mL
Cmax [3, 6]: 5.37 ng/mL
Tmax ([3]; sc, 0.01 mL/kg, Composition A 0.01 mL/kg SC QAD, Day 5, read-out: Tacrolimus Tmax (Median)): 5.5 h
half-life ([3]; sc, 0.01 mL/kg, Composition A 0.01 mL/kg SC QAD, Day 5, read-out: Tacrolimus t1/2 (GM) (converted)): 29.5 h
AUC [3, 7]: 105 ng·h/mL
Cmax [3, 7]: 3.15 ng/mL
Tmax ([3]; sc, 0.01 mL/kg, Composition A 0.01 mL/kg SC, Day 1, read-out: Tacrolimus Tmax (Median)): 12 h
half-life ([3]; sc, 0.01 mL/kg, Composition A 0.01 mL/kg SC, Day 1, read-out: Tacrolimus t1/2 (GM) (converted)): 37.8 h
AUC [3, 8]: 237 ng·h/mL
Cmax [3, 8]: 7.91 ng/mL
Tmax ([3]; sc, 0.02 mL/kg, Composition A 0.02 mL/kg SC QAD, Day 5, read-out: Tacrolimus Tmax (Median)): 2 h
half-life ([3]; sc, 0.02 mL/kg, Composition A 0.02 mL/kg SC QAD, Day 5, read-out: Tacrolimus t1/2 (GM) (converted)): 30.6 h
AUC [3, 9]: 152 ng·h/mL
Cmax [3, 9]: 4.49 ng/mL
Tmax ([3]; sc, 0.02 mL/kg, Composition A 0.02 mL/kg SC, Day 1, read-out: Tacrolimus Tmax (Median)): 8.01 h
half-life ([3]; sc, 0.02 mL/kg, Composition A 0.02 mL/kg SC, Day 1, read-out: Tacrolimus t1/2 (GM) (converted)): 36.4 h
half-life ([3]; subcutaneous, Composition A 0.005, 0.01, 0.02 mL/kg, Days 1 and 5, read-out: Tacrolimus GM t1/2): 24 to 38 h
Tmax ([3]; subcutaneous, single dose Day 1 and QAD dosing for 5 days, all doses, read-out: Tacrolimus median Tmax): 2 to 12 h
Mean tacrolimus trough levels ([3]; intermediate dose of MRG-001 (0.01 mL/kg)): 1.8 ng/mL
Mean tacrolimus trough levels ([3]; lowest dose of MRG-001 (0.005 ml/kg)): 0.8 ng/mL
Peak levels of tacrolimus ([3]; middle dose cohort (FIG. 1C)): 2 to 3 ng/mL
Compound: C=CC[C@@H]1/C=C(\C)C[C@H](C)C[C@H](OC)[C@H]2O[C@@](O)(C(=O)C(=O)N3CCCC[C@H]3C(=O)O[C@H](/C(C)=C/[C@@H]3CC[C@@H](O)[C@H](OC)C3)[C@H](C)[C@@H](O)CC1=O)[C@H](C)C[C@@H]2OC [Tacrolimus]
